In patent publication US8653138B2, “Calcium salts of compounds as anti-inflammatory, immunomodulatory and anti-proliferatory agents” (4SC MG, priority 2010, dated 2014) one finds IC50, Solubility and water uptake data, which are given here for 17 compounds.

Molecules are shown by their SMILES. ≈ marks a conversion by molar mass, not a printed value. Where a name gives a salt, the structure may show the parent alone.

T1 sequence (Q02127 whole entry): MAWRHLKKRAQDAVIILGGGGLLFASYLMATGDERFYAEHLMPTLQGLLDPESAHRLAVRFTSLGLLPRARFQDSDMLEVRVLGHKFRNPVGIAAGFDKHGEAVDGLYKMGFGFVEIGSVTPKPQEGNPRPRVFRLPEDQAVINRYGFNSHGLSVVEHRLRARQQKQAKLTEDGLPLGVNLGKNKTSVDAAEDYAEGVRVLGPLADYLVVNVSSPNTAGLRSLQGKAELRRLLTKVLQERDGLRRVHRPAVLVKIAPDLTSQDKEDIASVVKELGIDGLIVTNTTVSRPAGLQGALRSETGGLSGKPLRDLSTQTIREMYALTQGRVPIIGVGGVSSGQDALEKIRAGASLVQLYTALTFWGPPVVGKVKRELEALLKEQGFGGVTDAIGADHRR

The first data set has as its target T1, recombinant human DHODH (Homo sapiens, UniProt Q02127).
T1 construct: provided by Prof; M. Löffler, Marburg, Germany (gift, not a commercial vendor)
Briefly: Inhibition assay of DHODH activity, human enzyme. It is filed as biochemical. The following applies: class symbol (head prints μM, key in nM). Here is the method:
The standard assay mixture contained 50 μM decyclo ubichinone, 100 μM dihydroorotate, 60 μM 2,6-dichloroindophenol, as well as 20 mU DHODH. The volume activity of the recombinant enzyme used was 30 U/ml. Measurements were conducted in 50 mM TrisHCl (150 mM KCl, 0.1% Triton X-100, pH 8.0) at 30° C. in a final volume of 1 ml. The components were mixed, and the reaction was started by adding dihydroorotate. The course of reaction was followed by spectrophotometrically measuring the decrease in absorption at 600 nm for 2 min.
Inhibitory studies were conducted in a standard assay with additional variable amounts of inhibitor.
These investigations were carried out with recombinant human as well as with recombinant murine DHODH provided by Prof. M. Löffler, Marburg, Germany [M. Löffler, Chem. Biol. Interact.
The IC50 is the concentration at which inhibition is half-maximal. Regarding `COc1ccccc1-c1ccc(NC(=O)C2=C(C(=O)O)CCC2)cc1Cl` [Compound 54, 2-((2-chloro-2′-methoxy-[1,1′-biphenyl]-4-yl)carbamoyl)cyclopent-1-enecarboxylic acid], the IC50 was under 0.8 µM.

In the case of `COc1ccccc1-c1c(F)c(F)c(NC(=O)C2=C(C(=O)O)CCC2)c(F)c1F` [Compound 56, 2-((2,3,5,6-tetrafluoro-2′-methoxy-[1,1′-biphenyl]-4-yl)carbamoyl)cyclopent-1-enecarboxylic acid], the concentration for half-maximal inhibition (IC50) is under 0.8 µM.

As to `COc1ccccc1-c1ccc(NC(=O)C2=C(C(=O)O)CCC2)c(C)c1` [Compound 57, 2-((2′-methoxy-3-methyl-[1,1′-biphenyl]-4-yl)carbamoyl)cyclopent-1-enecarboxylic acid], the IC50 is under 0.8 µM.

Consider `COc1ccccc1-c1cc(Cl)c(NC(=O)C2=C(C(=O)O)CCC2)c(Cl)c1` [Compound 58, 2-((3,5-dichloro-2′-methoxy-[1,1′-biphenyl]-4-yl)carbamoyl)cyclopent-1-enecarboxylic acid], for which the IC50 was under 0.8 µM.

Consider `CCOc1ccccc1-c1cc(F)c(NC(=O)C2=C(C(=O)O)CCC2)c(F)c1` [Compound 62, 2-((2′-ethoxy-3,5-difluoro-[1,1′-biphenyl]-4-yl)carbamoyl)cyclopent-1-enecarboxylic acid], for which the IC50 is under 0.8 µM.

Turning to `CCOc1cccc(-c2cc(F)c(NC(=O)C3=C(C(=O)O)CCC3)c(F)c2)c1` [Compound 63, 2-((3′-ethoxy-3,5-difluoro-[1,1′-biphenyl]-4-yl)carbamoyl)cyclopent-1-enecarboxylic acid], the IC50 is under 0.8 µM.

On to `O=C(O)C1=C(C(=O)Nc2c(F)cc(-c3cccc(OC(F)(F)F)c3)cc2F)CCC1` [Compound 64, 2-((3,5-difluoro-3′-(trifluoromethoxy)-[1,1′-biphenyl]-4-yl)carbamoyl)cyclopent-1-enecarboxylic acid], for which the IC50 was under 0.8 µM.

For the compound `O=C(O)C1=C(C(=O)Nc2c(F)cc(-c3ccccc3Cl)cc2F)CCC1` [Compound 65, 2-((2′-chloro-3,5-difluoro-[1,1′-biphenyl]-4-yl)carbamoyl)cyclopent-1-enecarboxylic acid], the IC50 is under 0.8 µM.

On to `O=C(O)C1=C(C(=O)Nc2c(F)cc(-c3ccccc3F)cc2F)CCC1` [Compound 66, 2-((2′,3,5-trifluoro-[1,1′-biphenyl]-4-yl)carbamoyl)cyclopent-1-enecarboxylic acid], for which the IC50 is under 0.8 µM.

For `COc1ccc(-c2cc(F)c(NC(=O)C3=C(C(=O)O)CCC3)c(F)c2)c(OC)c1` [Compound 67, 2-((3,5-difluoro-2′,4′-dimethoxy-[1,1′-biphenyl]-4-yl)carbamoyl)cyclopent-1-enecarboxylic acid], the IC50 is under 0.8 µM.

As for `O=C(O)C1=C(C(=O)Nc2ccc(OCc3ccccc3C(F)(F)F)c(Cl)c2)CCC1` [Compound 68], the IC50 is under 0.8 µM.

Consider `O=C(O)C1=C(C(=O)Nc2ccc(OCc3ccccc3)c(Cl)c2)CCC1` [Compound 72], for which the IC50 is under 0.8 µM.

On to `O=C(O)C1=C(C(=O)Nc2ccc(OCc3ccccc3F)c(Cl)c2)CCC1` [Compound 74, 2-((3-chloro-4-((2-fluorobenzyl)oxy)phenyl)carbamoyl)cyclopent-1-enecarboxylic acid], for which the concentration for half-maximal inhibition (IC50) was under 0.8 µM.

As for `COc1ccccc1-c1ccc(OC(=O)C2=C(C(=O)O)CCC2)c(F)c1` [Compound 76], the IC50 was under 0.8 µM.

Test system in the next data set: not listed separately
The data set is described as follows: Aqueous solubility (OECD Guideline 105). It is filed as physicochemical. To be noted: water, 24 h at 23° C., HPLC-UV. On the procedure: Aqueous solubilities of Vidofludimus free acid (2-(3-Fluoro-3′-methoxybiphenyl-4-ylcarbamoyl)-cyclopent-1-enecarboxylic acid), its potassium salt and its Calcium salt were examined. The principle of the method was based on the OECD Guideline for the testing of chemicals, 105 “Water Solubility”. 2 mg of the experimental compounds were weighed into Eppendorf vials of 1.5 ml. Subsequently, water was added to arrive at a concentration of 5 mg/ml. After preparation of the solubility samples they were incubated for 24 h at 23° C. under continuous shaking. Then the samples were centrifuged to separate the precipitate from the dissolved compound. The supernatants were transferred into labelled HPLC vials for quantification by HPLC-UV. Finally, these HPLC samples were analysed on the HPLC-UV System and their contents were calculated from the calibration curves, The concentration of compound in the supernatant equals its solubility in water. The following aqueous solubilities were found for Vidofludimus free acid and its potassium-and calcium salt: […]
For orientation: Solubility means how much of the substance goes into solution per volume. `COc1cccc(-c2ccc(NC(=O)C3=C(C(=O)O)CCC3)c(F)c2)c1` [Calcium salt, calcium salt of 2-(3-Fluoro-3′-methoxy-biphenyl-4-ylcarbamoyl)-cyclopent-1-enecarboxylic acid] displayed a Solubility of 16.2 µg/mL.

Compound `COc1cccc(-c2ccc(NC(=O)C3=C(C(=O)O)CCC3)c(F)c2)c1` [Potassium salt] came in with a Solubility of 4700 µg/mL.

Staying with this data set, now noted: water, 24 h at 23° C., HPLC-UV; listed as Vidofludimus free acid.
As to `COc1cccc(-c2ccc(NC(=O)C3=C(C(=O)O)CCC3)c(F)c2)c1` [Compound 26, 2-((3-fluoro-3′-methoxy-[1,1′-biphenyl]-4-yl)carbamoyl)cyclopent-1-enecarboxylic acid], the Solubility turned out to be 9.5 µg/mL (≈ 26.7 µM).

Test system in another data set: not listed separately
Briefly: Dynamic vapor sorption (DVS). It is filed as physicochemical. To be noted: at 95% r.h. (not reversible). An excerpt:
DVS (SMS): Surface Measurement Systems Ltd. DVS-1 water vapour sorption analyzer. The sample is placed on a platinum sample pan and allowed to equilibrate at a given relative humidity (r.h.), usually 50% r.h. Then, a pre-defined humidity program was started with a scanning rate of 5% r.h. change per hour. First step: from 50% r.h. to 0% r.h, (in case of a possibly hydrate as starting material 50 to 95% r.h.), second step: from 0% to 95% r.h. (in case of a possibly hydrate as starting material 95 to 0% r.h.)
Compound `COc1cccc(-c2ccc(NC(=O)C3=C(C(=O)O)CCC3)c(F)c2)c1` [Calcium salt, calcium salt of 2-(3-Fluoro-3′-methoxy-biphenyl-4-ylcarbamoyl)-cyclopent-1-enecarboxylic acid] displayed a water uptake of 0.4%.

Still in this data set, the particulars now being: at about 85% r.h., after desolvation.
The compound `COc1cccc(-c2ccc(NC(=O)C3=C(C(=O)O)CCC3)c(F)c2)c1` [Calcium salt, calcium salt of 2-(3-Fluoro-3′-methoxy-biphenyl-4-ylcarbamoyl)-cyclopent-1-enecarboxylic acid] returned a water uptake of 0.3%.
